In general, IC50 refers to the point on the concentration scale where inhibition reaches its midpoint.

One assay addresses T1, Human CYP17 (Homo sapiens, UniProt P05093).
T1 construct: expressed in transfected cells; host or cells: HEK2 (sic); microsomes prepared as a high-speed pellet
T1 sequence (P05093 1-508): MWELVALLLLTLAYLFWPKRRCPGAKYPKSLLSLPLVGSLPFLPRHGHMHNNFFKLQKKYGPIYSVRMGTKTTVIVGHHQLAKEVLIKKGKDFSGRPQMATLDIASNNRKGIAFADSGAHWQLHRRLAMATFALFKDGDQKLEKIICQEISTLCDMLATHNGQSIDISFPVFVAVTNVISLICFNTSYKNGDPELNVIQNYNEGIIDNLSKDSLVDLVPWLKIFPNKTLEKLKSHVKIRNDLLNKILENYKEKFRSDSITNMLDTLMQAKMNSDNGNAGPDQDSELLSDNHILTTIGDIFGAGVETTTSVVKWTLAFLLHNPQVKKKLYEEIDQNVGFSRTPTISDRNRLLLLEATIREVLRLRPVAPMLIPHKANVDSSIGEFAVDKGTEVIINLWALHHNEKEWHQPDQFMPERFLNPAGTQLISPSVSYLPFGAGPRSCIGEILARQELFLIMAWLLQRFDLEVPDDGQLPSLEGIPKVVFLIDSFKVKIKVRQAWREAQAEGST
Put plainly: CYP17 Total SPA Assay. In kind it is biochemical. The following applies: microsomes from HEK2 cells stably transfected with CYP17; 3H-Pregnenolone 1 uM, NADPH 2 mM; 45 minutes at room temperature. How it is done: The assays were performed in U-bottom 384-well optiplates. The final assay volume was 15 μl prepared from 7.5 μl additions of microsomes (prepared as a high-speed pellet from homogenized HEK2 cells stably transfected with CYP17), substrates (3 H-Pregnenolone and NADPH) and test compounds in assay buffer (50 mM Potassium phosphate pH 7.2, 10% glycerol). The reaction was initiated by the combination of the microsomes and substrates in wells containing compound. The reaction was incubated at room temperature for 45 minutes and terminated by adding 7.5 μl of 0.2N HCl to each well. Following an incubation period of 10 minutes, anti-DHEA-coated SPA beads were added to the terminated reaction. The plate was sealed and incubated overnight with shaking at 4° C. The beads were allowed to settle in the plate for 1 hour and the plate read on a Topcount (Perkin-Elmer) plate reader.
Inhibition data were calculated by comparison to no enzyme control reactions for 100% inhibition and vehicle-only reactions for 0% inhibition. The final concentration of reagents in the assays are NADPH, 2 mM; 3H-Pregnenolone, 1 uM; microsomes, 1.25 ug/ml; Anti-DHEA-SPA beads (0.125 mg/well) in 0.5% Triton X-100 and DMSO, 0.05%. Dose response curves were generated to determine the concentration required inhibiting 50% of enzyme activity (IC50). Compounds were dissolved at 10 mM in dimethylsulfoxide (DMSO) and evaluated at eleven concentrations, each in duplicate. IC50 values were derived by non-linear regression analysis.
Table 5 below lists the IC50 values for the following examples of this invention measured in the Total CYP17 SPA Assay hereinabove.
Consider `Nc1ncncc1-c1ccnc2c1cnn2-c1ccccn1` [Example 72, 5-(1-(pyridin-2-yl)-1H-pyrazolo[3,4-b]pyridin-4-yl)pyrimidin-4-amine], for which the IC50 worked out at 525 nM.

Regarding `Cc1ccncc1-c1ccnc2c1cnn2-c1ncccc1Br` [Example 46, 1-(3-bromopyridin-2-yl)-4-(4-methylpyridin-3-yl)-1H-pyrazolo[3,4-b]pyridine], the IC50 came to 10 nM. In the case of `Cc1csc(-n2ncc3c(-c4cnccc4C)ccnc32)n1` [Example 88, 4-methyl-2-(4-(4-methylpyridin-3-yl)-1H-pyrazolo[3,4-b]pyridin-1-yl)thiazole], the IC50 came out at 622 nM. As for `Fc1ccc(-n2ncc3c(-c4cncnc4OCC(F)(F)F)ccnc32)cc1` [Example 106, 1-(4-fluorophenyl)-4-(4-(2,2,2-trifluoroethoxy)pyrimidin-5-yl)-1H-pyrazolo[3,4-b]pyridine], the IC50 amounted to 123 nM. `Nc1ncncc1-c1ccnc2c1cnn2-c1ccc(F)cc1` [Example 8, 5-(1-(4-fluorophenyl)-1H-pyrazolo[3,4-b]pyridin-4-yl)pyrimidin-4-amine]: the IC50 was 23 nM. As to `OC1(c2ccncc2-c2ccnc3c2cnn3-c2ccc(F)cc2)COC1` [Example 9, 3-(3-(1-(4-fluorophenyl)-1H-pyrazolo[3,4-b]pyridin-4-yl)pyridin-4-yl)oxetan-3-ol], the 50% inhibitory concentration (IC50) was 5.9 nM. `Fc1ccc(-n2ncc3c(-c4cncnc4C(F)(F)F)ccnc32)cc1F` [Example 100, 1-(3,4-difluorophenyl)-4-(4-(trifluoromethyl)-5-pyrimidinyl)-1H-pyrazolo[3,4-b]pyridine]: the IC50 worked out at 320 nM. `Nc1ncncc1-c1ccnc2c1cnn2-c1ccc(F)cc1F` [Example 67, 5-(1-(2,4-difluorophenyl)-1H-pyrazolo[3,4-b]pyridin-4-yl)pyrimidin-4-amine]: the IC50 is 5.8 nM.

For `Cc1ccncc1-c1ccnc2c1cnn2Cc1c(F)cccc1Cl` [Example 55, 1-(2-chloro-6-fluorobenzyl)-4-(4-methylpyridin-3-yl)-1H-pyrazolo[3,4-b]pyridine], the IC50 was found to be 807 nM. Regarding `Cc1ccncc1-c1ccnc2c1cnn2CC(F)(F)F` [Example 84, 4-(4-methylpyridin-3-yl)-1-(2,2,2-trifluoroethyl)-1H-pyrazolo[3,4-b]pyridine], the IC50 was found to be 89 nM. `Cc1ncncc1-c1ccnc2c1cnn2-c1ccc(F)cc1F` [Example 64, 1-(2,4-difluorophenyl)-4-(4-methylpyrimidin-5-yl)-1H-pyrazolo[3,4-b]pyridine]: the IC50 is 15 nM. On the same count and under the same terms, next, `Cc1ccncc1-c1ccnc2c1cnn2-c1ccc(C(F)(F)F)cn1` [Example 39, 4-(4-methylpyridin-3-yl)-1-(5-(trifluoromethyl)pyridin-2-yl)-1H-pyrazolo[3,4-b]pyridine]: 100 nM; `Fc1ccc(-n2ncc3c(-c4cncnc4C(F)(F)F)ccnc32)c(F)c1` [Example 93, 1-(2,4-difluorophenyl)-4-(4-(trifluoromethyl)pyrimidin-5-yl)-1H-pyrazolo[3,4-b]pyridine]: 159 nM; `Cc1ccncc1-c1ccnc2c1cnn2-c1cccc(S(N)(=O)=O)c1` [Example 80, 3-(4-(4-methylpyridin-3-yl)-1H-pyrazolo[3,4-b]pyridin-1-yl)benzenesulfonamide]: 18 nM. For the molecule `Cc1ccncc1-c1ccnc2c1cnn2C1CCOCC1` [Example 33, 4-(4-methylpyridin-3-yl)-1-(tetrahydro-2H-pyran-4-yl)-1H-pyrazolo[3,4-b]pyridine], the IC50 came out at 393 nM. As for `Nc1ncncc1-c1ccnc2c1cnn2-c1ccc(F)c(F)c1F` [Example 70, 5-(1-(2,3,4-trifluorophenyl)-1H-pyrazolo[3,4-b]pyridin-4-yl)pyrimidin-4-amine], the IC50 stood at 105 nM.

As to `Cc1ncncc1-c1ccnc2c1cnn2-c1ccc(F)cc1` [Example 2, 1-(4-fluorophenyl)-4-(4-methylpyrimidin-5-yl)-1H-pyrazolo[3,4-b]pyridine], the IC50 is 186 nM.

As to `Nc1ncncc1-c1ccnc2c1cnn2-c1ccc(F)c(Cl)c1` [Example 96, 5-(1-(3-chloro-4-fluorophenyl)-1H-pyrazolo[3,4-b]pyridin-4-yl)-4-pyrimidinamine], the IC50 worked out at 704 nM.

The test system of another assay is cynomolgus monkeys. Briefly: 1-Day Cyno PK/PD Study. The following applies: plasma, single oral dose 1 mg/Kg in 80% PEG-400/water, monitored over 24 hours. Type of assay: in vivo, cynomolgus monkey. The method, then: Example 67 was formulated in 80% PEG-400/water at a volume of 1 mL/kg of monkey at a dose of 1 mg/kg. The formulation was then dosed orally at time=0 hours and blood samples were taken over a 24 hour period to monitor for drug exposure and testosterone levels. (♦) Example 67 (nM); (▪) testosterone (ng/dL).
• Animals: All procedures involving animals and their care were conducted in conformity with the guidelines that are in compliance with the Bristol-Myers Squibb Institutional Animal Care and Use Committee. Fully mature male cynomolgus monkeys (>4 yrs of age; 5-6 kg) were from an in-house colony. All the monkeys used had chronically implanted femoral vein access ports. For oral studies, all animals were fasted overnight prior to dosing and were fed 4 hr after dosing. […] The plasma fraction was immediately separated by centrifugation (14,000 rpm, 10 min, 4° C.), frozen on dry ice, and stored at −20° C. until the samples were analyzed. • Analysis of Tested Compound: Plasma samples were thawed and treated with two volumes of acetonitrile containing internal standard. After centrifugation to remove precipitated proteins, an aliquot of supernatant was analyzed by LC/MS/MS. […]
For `Nc1ncncc1-c1ccnc2c1cnn2-c1ccc(F)cc1F` [Example 67, 5-(1-(2,4-difluorophenyl)-1H-pyrazolo[3,4-b]pyridin-4-yl)pyrimidin-4-amine], the testosterone levels was roughly 30 ng/dL.

For the origin of these results see US8673922B2, “Azaindazole compounds” (Bristol-Myers Squibb Company, priority 2010, dated 2014).
